# The supplement of paper PMC10307832
# What was measured:
# Experiment in all cases: relative viability (nuclei count vs DMSO), 5 days (fraction); higher = more cells survive
# XMD8-85 + Bortezomib = compound: CN1CCN(CC1)C2=CC(=C(C=C2)NC3=NC=C4C(=N3)N(C5=CC=CC=C5C(=O)N4C)C)OC [XMD8-85] + CC(C)C[C@H](NC(=O)[C@H](Cc1ccccc1)NC(=O)c1cnccn1)B(O)O [Bortezomib] (partner 0.002 µM)
# In short: (§1)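 Relative viability divides the nuclei count in treated wells by that in vehicle wells. Lung cancer cell lines were seeded in 1536-well plates, dosed by pin tool the next day, and fixed and stained after 5 days in one step with final 0.05% Triton X-100, 1% formaldehyde and 1 ug/ml Hoechst. Dosing was a single drug or a fixed anchor-drug dose plus five library-drug doses (not always all listed) in √10 steps, and values are medians of duplicate plates imaged at 4×.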
# XMD8-85 + Tozasertib = compound: CN1CCN(CC1)C2=CC(=C(C=C2)NC3=NC=C4C(=N3)N(C5=CC=CC=C5C(=O)N4C)C)OC [XMD8-85] + Cc1cc(Nc2cc(N3CCN(C)CC3)nc(Sc3ccc(NC(=O)C4CC4)cc3)n2)n[nH]1 [Tozasertib] (partner 0.1 µM)
# In short: as §1
# XMD8-85 + Olaparib = compound: CN1CCN(CC1)C2=CC(=C(C=C2)NC3=NC=C4C(=N3)N(C5=CC=CC=C5C(=O)N4C)C)OC [XMD8-85] + O=C(c1cc(Cc2n[nH]c(=O)c3ccccc23)ccc1F)N1CCN(C(=O)C2CC2)CC1 [Olaparib] (partner 8 µM)
# In short: as §1
# XMD8-85 + Lapatinib = compound: CN1CCN(CC1)C2=CC(=C(C=C2)NC3=NC=C4C(=N3)N(C5=CC=CC=C5C(=O)N4C)C)OC [XMD8-85] + CS(=O)(=O)CCNCc1ccc(-c2ccc3ncnc(Nc4ccc(OCc5cccc(F)c5)c(Cl)c4)c3c2)o1 [Lapatinib] (partner 2 µM)
# In short: as §1
Cell Line,relative viability (XMD8-85 + Bortezomib; first compound 0.08 µM),relative viability (XMD8-85 + Bortezomib; first compound 0.253 µM),relative viability (XMD8-85 + Bortezomib; first compound 0.8 µM),relative viability (XMD8-85 + Bortezomib; first compound 2.53 µM),relative viability (XMD8-85 + Bortezomib; first compound 8 µM),relative viability (XMD8-85 + Tozasertib; first compound 0.08 µM),relative viability (XMD8-85 + Tozasertib; first compound 0.253 µM),relative viability (XMD8-85 + Tozasertib; first compound 0.8 µM),relative viability (XMD8-85 + Tozasertib; first compound 2.53 µM),relative viability (XMD8-85 + Tozasertib; first compound 8 µM),relative viability (XMD8-85 + Olaparib; first compound 0.08 µM),relative viability (XMD8-85 + Olaparib; first compound 0.253 µM),relative viability (XMD8-85 + Olaparib; first compound 0.8 µM),relative viability (XMD8-85 + Olaparib; first compound 2.53 µM),relative viability (XMD8-85 + Olaparib; first compound 8 µM),relative viability (XMD8-85 + Lapatinib; first compound 0.08 µM),relative viability (XMD8-85 + Lapatinib; first compound 0.253 µM),relative viability (XMD8-85 + Lapatinib; first compound 0.8 µM),relative viability (XMD8-85 + Lapatinib; first compound 2.53 µM),relative viability (XMD8-85 + Lapatinib; first compound 8 µM)
ChaGo-K-1,0.905,1.07,1.18,1.37,0.357,0.225,0.233,0.207,0.196,0.144,0.409,0.43,0.409,0.433,0.347,–,–,–,–,–
EBC-1,0.551,0.472,0.434,0.297,0.329,–,–,–,–,–,0.649,0.693,0.679,0.567,0.346,0.2,0.21,0.174,0.184,0.172
EKVX,1.08,1.11,1.09,1.13,1,0.404,0.34,0.41,0.427,0.276,0.756,0.83,0.998,0.898,0.901,0.198,0.217,0.203,0.209,0.208
EMC-BAC-2,1.06,1.05,1.1,1.16,0.965,0.293,0.275,0.285,0.239,0.224,0.498,0.465,0.487,0.477,0.417,0.914,0.847,0.945,0.944,0.835
EPLC-272H,–,0.831,0.928,0.814,0.571,0.294,0.241,0.557,0.281,0.25,0.853,0.579,0.747,0.458,0.387,–,0.824,1.02,0.905,0.566
H3255,0.856,0.787,–,0.741,0.29,0.599,0.646,0.651,0.25,0.469,0.581,0.603,0.512,0.504,0.369,0.26,0.237,0.233,0.243,0.167
HARA,1.08,1.01,1.26,1.16,0.866,0.103,0.42,0.104,0.101,0.0877,1.28,0.581,0.698,0.387,0.399,0.761,0.781,0.907,0.787,0.569
HCC-15,0.948,1,1.14,1.15,0.926,0.394,0.294,0.398,0.167,0.143,0.745,0.67,0.7,0.699,0.64,0.851,0.879,0.863,0.948,0.747
